Results from ChEMBL document CHEMBL1156569, “Structural basis for the improved drug resistance profile of new generation benzophenone non-nucleoside HIV-1 reverse transcriptase inhibitors” (J Med Chem, 2008).

Legend:
Assay type in all cases: functional, organism-based
Details in all cases: Human immunodeficiency virus 1, HeLa
[1] = system: Human immunodeficiency virus 1; assay: Antiviral activity against NNRTI-resistant HIV1 with reverse transcriptase K103N/L100I mutant in HeLa cells by MAGI assay
[2] = system: Human immunodeficiency virus 1; assay: Antiviral activity against NNRTI-resistant HIV1 with reverse transcriptase K103N/P225H mutant in HeLa cells by MAGI assay
[3] = system: Human immunodeficiency virus 1; assay: Antiviral activity against wild type HIV1 in HeLa cells by MAGI assay
[4] = system: Human immunodeficiency virus 1; assay: Antiviral activity against NNRTI-resistant HIV1 with reverse transcriptase Y181C mutant in HeLa cells by MAGI assay
[5] = system: Human immunodeficiency virus 1; assay: Antiviral activity against NNRTI-resistant HIV1 with reverse transcriptase K103N mutant in HeLa cells by MAGI assay
[6] = system: Human immunodeficiency virus 1; assay: Antiviral activity against NNRTI-resistant HIV1 with reverse transcriptase V106A mutant in HeLa cells by MAGI assay
[7] = system: Human immunodeficiency virus 1; assay: Antiviral activity against NNRTI-resistant HIV1 with reverse transcriptase Y188L mutant in HeLa cells by MAGI assay
[8] = system: Human immunodeficiency virus 1; assay: Antiviral activity against NNRTI-resistant HIV1 with reverse transcriptase L100I mutant in HeLa cells by MAGI assay
[9] = system: Human immunodeficiency virus 1; assay: Antiviral activity against NNRTI-resistant HIV1 with reverse transcriptase G190A mutant in HeLa cells by MAGI assay
[10] = system: Human immunodeficiency virus 1; assay: Antiviral activity against NNRTI-resistant HIV1 with reverse transcriptase G190S mutant in HeLa cells by MAGI assay
[11] = system: Human immunodeficiency virus 1; assay: Antiviral activity against NNRTI-resistant HIV1 with reverse transcriptase G190E mutant in HeLa cells by MAGI assay
[12] = system: Human immunodeficiency virus 1; assay: Antiviral activity against NNRTI-resistant HIV1 with reverse transcriptase V106M mutant in HeLa cells by MAGI assay
[13] = system: Human immunodeficiency virus 1; assay: Antiviral activity against NNRTI-resistant HIV1 with reverse transcriptase V108I mutant in HeLa cells by MAGI assay
[14] = system: Human immunodeficiency virus 1; assay: Antiviral activity against NNRTI-resistant HIV1 with reverse transcriptase V106I mutant in HeLa cells by MAGI assay
[15] = system: Human immunodeficiency virus 1; assay: Antiviral activity against NNRTI-resistant HIV1 with reverse transcriptase K101E mutant in HeLa cells by MAGI assay
[16] = system: Human immunodeficiency virus 1; assay: Antiviral activity against NNRTI-resistant HIV1 with reverse transcriptase E138K mutant in HeLa cells by MAGI assay
[17] = system: Human immunodeficiency virus 1; assay: Antiviral activity against NNRTI-resistant HIV1 with reverse transcriptase P236L mutant in HeLa cells by MAGI assay
[18] = system: Human immunodeficiency virus 1; assay: Antiviral activity against NNRTI-resistant HIV1 with reverse transcriptase Y188C mutant in HeLa cells by MAGI assay
[19] = system: Human immunodeficiency virus 1; assay: Antiviral activity against NNRTI-resistant HIV1 with reverse transcriptase K103N/G190A mutant in HeLa cells by MAGI assay
[20] = system: Human immunodeficiency virus 1; assay: Antiviral activity against NNRTI-resistant HIV1 with reverse transcriptase K103N/V108I mutant in HeLa cells by MAGI assay
[21] = system: Human immunodeficiency virus 1; assay: Antiviral activity against NNRTI-resistant HIV1 with reverse transcriptase K103N/Y181C mutant in HeLa cells by MAGI assay
[22] = system: Human immunodeficiency virus 1; assay: Antiviral activity against NNRTI-resistant HIV1 with reverse transcriptase V106A/Y181C mutant in HeLa cells by MAGI assay
[23] = system: Human immunodeficiency virus 1; assay: Antiviral activity against NNRTI-resistant HIV1 with reverse transcriptase V108I/Y181C mutant in HeLa cells by MAGI assay
[24] = system: Human immunodeficiency virus 1; assay: Antiviral activity against NNRTI-resistant HIV1 with reverse transcriptase V106I/Y181C mutant in HeLa cells by MAGI assay
[25] = system: Human immunodeficiency virus 1; assay: Antiviral activity against NNRTI-resistant HIV1 with reverse transcriptase P225H mutant in HeLa cells by MAGI assay

SMILES | IC50 [1] [nM] | IC50 [2] [nM] | IC50 [3] [nM] | IC50 [4] [nM] | IC50 [5] [nM] | IC50 [6] [nM] | IC50 [7] [nM] | IC50 [8] [nM] | IC50 [9] [nM] | IC50 [11] [nM] | IC50 [13] [nM] | IC50 [14] [nM] | IC50 [15] [nM] | IC50 [16] [nM] | IC50 [17] [nM] | IC50 [18] [nM] | IC50 [20] [nM] | IC50 [21] [nM] | IC50 [22] [nM] | IC50 [24] [nM] | further results
Cc1cc(S(N)(=O)=O)ccc1NC(=O)COc1ccc(Cl)cc1C(=O)c1cc(Cl)cc(C#N)c1 | 0.9 | 0.7 | 0.2 | 0.4 | 0.4 | 1.1 | 14 | 0.3 | 0.6 | 0.4 | 0.7 | 0.8 | 0.6 | 1.6 | 0.4 | 0.04 | 0.9 | 1.2 | 1 | 3.8 | IC50 [10]: 0.7 nM; IC50 [12]: 0.4 nM; IC50 [19]: 3.3 nM; IC50 [23]: 0.6 nM
Cc1cc(S(N)(=O)=O)ccc1NC(=O)COc1ccc(Cl)cc1C(=O)c1cc(F)cc(C(F)(F)F)c1 | 2.8 | 1.4 | 1.2 | 2.1 | 1.7 | 9.3 | 66 | 1.1 | 4 | 3.9 | 1.8 | 2.3 | 3.1 | 2.7 | 3.4 | 0.3 | 2.6 | 3.3 | 13 | 10 | IC50 [25]: 0.7 nM; IC50 [19]: 13 nM; IC50 [23]: 3.2 nM
O=C(COc1ccc(Cl)cc1C(=O)c1ccccc1)Nc1ccccc1 | 269 | 56 | 2 | 162 | 25 | 696 | > 2000 | 21 | 31 | 8.3 | 19 | 18 | 13 | 27 | 5.4 | 122 | 347 | 1050 | 902 | 1900 | IC50 [10]: 135 nM; IC50 [12]: 155 nM; IC50 [25]: 3.3 nM; IC50 [19]: 661 nM; IC50 [23]: 638 nM
O=C1Nc2ccc(Cl)cc2C(C#CC2CC2)(C(F)(F)F)O1 (single isomer, unassigned) [EFAVIRENZ] | 1200 | – | 0.4 | 0.8 | 17 | 0.8 | 154 | 21 | 5.9 | 1 | 1.8 | 0.9 | 2.3 | 1.2 | 0.6 | 1.2 | 94 | 44 | 2 | 3 | IC50 [10]: 89 nM; IC50 [12]: 7.2 nM; IC50 [25]: 1.3 nM; IC50 [23]: 2.7 nM
CC(C)Nc1cccnc1N1CCN(C(=O)c2cc3cc(NS(C)(=O)=O)ccc3[nH]2)CC1 [DELAVIRDINE] | > 2000 | > 2000 | 88 | – | 1600 | 750 | – | 773 | 21 | – | – | 22 | 537 | – | > 2000 | 1620 | > 2000 | > 2000 | > 2000 | 943 | IC50 [19]: 730 nM
Cc1ccnc2c1NC(=O)c1cccnc1N2C1CC1 [NEVIRAPINE] | > 2000 | > 2000 | 53 | > 2000 | > 2000 | 1870 | > 2000 | 304 | > 2000 | 83 | 294 | 89 | 409 | 71 | 59 | 801 | > 2000 | > 2000 | > 2000 | > 2000 | IC50 [10]: > 2000 nM; IC50 [12]: > 2000 nM; IC50 [25]: 118 nM; IC50 [19]: > 2000 nM; IC50 [23]: > 2000 nM
